# Source: article PMC3445454, “Broad and Cross-Clade CD4^+ T-Cell Responses Elicited by a DNA Vaccine Encoding Highly Conserved and Promiscuous HIV-1 M-Group Consensus Peptides” (PLoS ONE, 2012)
# Where a chain is given by its changes, count along the chain named. Read-outs that look alike come from different tables or passages of the source. Ends that are not written are not given here.
# Columns and labels:
# Test in all cases: biochemical
# HLA-DR DRB4*01:01 = HLA-DR DRB4*01:01 (Homo sapiens, UniProt P01903+P13762, G164S); assay type: binding
# [1] = biological target: T1, HLA-DP DPA1*01:03/DPB1*20:01 (Homo sapiens, UniProt P04440+P20036, A65V/A84D/A85E/E86D/F38Y/G113D/G114E/G40L/I94L/L37V/M116V/P115A/R125K/T199I); assay type: binding
# T1 sequence (P20036 29-260): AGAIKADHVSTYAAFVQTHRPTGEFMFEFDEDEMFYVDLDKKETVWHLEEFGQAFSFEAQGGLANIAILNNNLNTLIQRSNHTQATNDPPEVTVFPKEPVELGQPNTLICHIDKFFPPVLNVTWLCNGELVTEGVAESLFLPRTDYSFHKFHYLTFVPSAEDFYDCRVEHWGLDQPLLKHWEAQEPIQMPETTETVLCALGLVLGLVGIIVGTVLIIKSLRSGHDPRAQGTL
# T1 sequence (P04440 30-258 L37V/F38Y/G40L/A65V/A84D/A85E/E86D/I94L/G113D/G114E/P115A/M116V/R125K/T199I/V234M): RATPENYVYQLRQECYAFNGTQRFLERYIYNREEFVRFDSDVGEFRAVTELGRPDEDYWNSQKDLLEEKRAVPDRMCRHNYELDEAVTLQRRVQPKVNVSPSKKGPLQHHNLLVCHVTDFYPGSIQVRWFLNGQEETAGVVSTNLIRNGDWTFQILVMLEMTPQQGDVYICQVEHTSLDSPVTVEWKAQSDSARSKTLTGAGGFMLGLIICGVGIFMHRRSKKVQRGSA
# HLA-DR DRB1*13:02 = HLA-DR DRB1*13:02 (Homo sapiens, UniProt P01903+P01911, A100E/A169T/K41T/L162R/M171V/P40S/Q125H/Q178H/Q39Y/Q99D/R42S/S66N/T262R/V115G/W38E/Y61H); assay type: binding
# [2] = biological target: T2, HLA-DP DPA1*01:03/DPB1*03:01 (Homo sapiens, UniProt P04440+P20036, A65V/A84D/A85E/E86D/F38Y/G113D/G114E/G40L/I94L/L37V/M105V/M116V/P115A/R125K/T199I); assay type: binding
# T2 sequence (P20036 29-260): T1 sequence (P20036 29-260)
# T2 sequence (P04440 30-258 L37V/F38Y/G40L/A65V/A84D/A85E/E86D/I94L/M105V/G113D/G114E/P115A/M116V/R125K/T199I): T1 sequence (P04440 30-258 L37V/F38Y/G40L/A65V/A84D/A85E/E86D/I94L/G113D/G114E/P115A/M116V/R125K/T199I/V234M) with M76V, M205V
# HLA-DR DRB1*08:02 = HLA-DR DRB1*08:02 (Homo sapiens, UniProt P01903+P01911, A100R/A103L/A169T/F76Y/H45Y/I96F/K41T/L162R/M171V/P40S/Q125H/Q178H/Q39Y/Q99D/R218S/R42G/S66Y/V115G/W38E); assay type: binding
# HLA-DR DRB1*04:05 = HLA-DR DRB1*04:05 (Homo sapiens, UniProt P01903+P01911, A100R/A169T/D86S/F76Y/I96L/K127E/L162R/M171V/N62H/P40V/Q125Y/R42H/S133A/S149N/S66Y/V115G/V209L/W38E); assay type: binding
# HLA-DR DRB1*04:01 = HLA-DR DRB1*04:01 (Homo sapiens, UniProt P01903+P01911, A100K/A169T/F76Y/I96L/K127E/L162R/M171V/N62H/P40V/Q125Y/R42H/S133A/S149N/S66Y/V115G/V209L/W38E); assay type: binding
# [3] = biological target: HLA-DP DPA1*02:01/DPB1*01:01 (Homo sapiens, UniProt P04440+P20036, F191V/F38Y/F64Y/G113D/G114E/K142R/L158P/L37V/M105V/M116V/M62Q/P115A/Q81R/R125K/R223Q/T114A/T199I/T259P)
# Chain of HLA-DP DPA1*02:01/DPB1*01:01 (P20036 29-260 A42M/M62Q/Q81R/T114A/K142R/L158P/F191V/T259P, other chains not shown): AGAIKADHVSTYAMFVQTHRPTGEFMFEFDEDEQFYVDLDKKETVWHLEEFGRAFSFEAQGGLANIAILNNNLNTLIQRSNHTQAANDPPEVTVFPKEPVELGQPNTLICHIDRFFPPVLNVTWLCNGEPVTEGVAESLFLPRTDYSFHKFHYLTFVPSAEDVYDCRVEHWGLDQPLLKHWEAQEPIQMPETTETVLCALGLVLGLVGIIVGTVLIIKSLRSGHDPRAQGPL
# HLA-DR DRB5*01:01 = HLA-DR DRB5*01:01 (Homo sapiens, UniProt P01903+Q30154); assay type: binding
# HLA-DR DRB1*16:02 = HLA-DR DRB1*16:02 (Homo sapiens, UniProt P01903+P01911, A100R/F76Y/I96L/Q99D/V115G); assay type: binding
# HLA-DR DRB1*11:01 = HLA-DR DRB1*11:01 (Homo sapiens, UniProt P01903+P01911, A100R/A169T/A87E/I96F/K41T/L162R/M171V/P40S/Q125H/Q178H/Q39Y/Q99D/R42S/S66Y/T262R/V115G/W38E); assay type: binding
# [4] = biological target: T3, HLA-DP DPA1*02:01/DPB1*05:01 (Homo sapiens, UniProt P04440+P20036, A65V/A84E/F191V/F64L/G113D/G114E/K142R/L158P/M116V/M62Q/P115A/Q81R/R125K/T114A/T199I/T259P/V234M); assay type: binding
# T3 sequence (P20036 29-260 A42M/M62Q/Q81R/T114A/K142R/L158P/F191V/T259P): T1 sequence (P20036 29-260) with A14M, M34Q, Q53R, T86A, K114R, L130P, F163V, T231P
# T3 sequence (P04440 30-258 F64L/A65V/A84E/G113D/G114E/P115A/M116V/R125K/T199I/V234M): T1 sequence (P04440 30-258 L37V/F38Y/G40L/A65V/A84D/A85E/E86D/I94L/G113D/G114E/P115A/M116V/R125K/T199I/V234M) with V8L, Y9F, L11G, F35L, D55E, E56A, D57E, L65I
# [5] = read-out: Binding capacity/IC50 (nM) DRB4*01:01
# [6] = read-out: Binding capacity/IC50 (nM) DPA1*01:03 DPB1*20:01
# [7] = read-out: Binding capacity/IC50 (nM) DPA1*02:01 DPB1*05:01
# [8] = read-out: Binding capacity/IC50 (nM) DRB1*04:05
# [9] = read-out: Binding capacity/IC50 (nM) DRB1*04:01
# [10] = read-out: Binding capacity/IC50 (nM) DRB5*01:01
# [11] = read-out: Binding capacity/IC50 (nM) DRB1*11:01
# [12] = read-out: Binding capacity/IC50 (nM) DRB1*13:02
# [13] = read-out: Binding capacity/IC50 (nM) DPA1*01:03 DPB1*03:01
# [14] = read-out: Binding capacity/IC50 (nM) DRB1*08:02
# [15] = read-out: Binding capacity/IC50 (nM) DRB1*16:02
Compound,IC50 (HLA-DR DRB4*01:01; [5]),"IC50 [1, 6]",IC50 [2],IC50 (HLA-DR DRB1*08:02),IC50 (HLA-DR DRB1*04:01),IC50 [3],IC50 (HLA-DR DRB5*01:01),IC50 (HLA-DR DRB1*11:01),"IC50 [4, 7]",IC50 [1],IC50 (HLA-DR DRB1*04:05; [8]),IC50 (HLA-DR DRB1*04:01; [9]),IC50 (HLA-DR DRB5*01:01; [10]),IC50 (HLA-DR DRB1*11:01; [11]),IC50 (HLA-DR DRB1*13:02; [12]),"IC50 [2, 13]",IC50 (HLA-DR DRB1*08:02; [14]),IC50 (HLA-DR DRB1*16:02; [15]),also measured
CSCC[C@H](NC(=O)[C@H](CCCCN)NC(=O)[C@H](C)NC(=O)[C@H](Cc1ccc(O)cc1)NC(=O)[C@H](CCCCN)NC(=O)CNC(=O)[C@@H](NC(=O)[C@H](CCCCN)NC(=O)[C@H](CC(C)C)NC(=O)[C@H](CC(N)=O)NC(=O)[C@H](CCCCN)NC(=O)[C@H](Cc1ccccc1)NC(=O)[C@@H]1CCCN1C(=O)[C@H](CCC(=O)O)NC(=O)[C@@H](N)CCC(N)=O)[C@@H](C)O)C(N)=O [RT(343-357)],2920 nM,2790 nM,6510 nM,947 nM,591 nM,300 nM,1.6 nM,428 nM,1340 nM,,,,,,,,,,IC50 (HLA-DR DRB1*13:02): 25000 nM; IC50 (HLA-DR DRB1*04:05): 277 nM; IC50 (HLA-DR DRB1*16:02): 464 nM
CC[C@H](C)[C@H](NC(=O)CNC(=O)[C@H](CCCCN)NC(=O)[C@H](Cc1c[nH]cn1)NC(=O)[C@H](C)NC(=O)[C@@H]1CCCN1C(=O)[C@@H](NC(=O)[C@H](Cc1c[nH]c2ccccc12)NC(=O)[C@H](CO)NC(=O)[C@H](CC(C)C)NC(=O)[C@H](Cc1ccc(O)cc1)NC(=O)[C@@H](NC(=O)[C@H](CCCCN)NC(=O)[C@H](CCC(=O)O)NC(=O)[C@@H](N)CCCCN)C(C)C)C(C)C)C(=O)NCC(=O)NCC(=O)N[C@@H](CC(N)=O)C(=O)N[C@@H](CCC(=O)O)C(N)=O [RT(528-546)],57 nM,,76 nM,,,585 nM,,,3560 nM,6 nM,41 nM,68 nM,16 nM,3150 nM,,,,,
CC[C@H](C)[C@H](NC(=O)[C@H](Cc1ccc(O)cc1)NC(=O)CNC(=O)[C@H](CO)NC(=O)[C@H](C)NC(=O)[C@@H](NC(=O)[C@H](Cc1c[nH]cn1)NC(=O)[C@@H](NC(=O)[C@H](C)NC(=O)[C@@H](NC(=O)[C@H](CC(C)C)NC(=O)[C@@H](NC(=O)[C@@H](NC(=O)[C@H](CCCCN)NC(=O)CNC(=O)[C@@H](N)CCC(=O)O)[C@@H](C)CC)[C@@H](C)CC)C(C)C)C(C)C)C(C)C)C(=O)N[C@@H](CCC(=O)O)C(N)=O [integrase(69-85)],,470 nM,,,,5930 nM,,,2710 nM,,430 nM,7.6 nM,523 nM,,17000 nM,1990 nM,11 nM,167 nM,IC50 (HLA-DR DRB4*01:01): 56 nM
DEELLKAVRIIKILYQSNP-NH2 [rev(9-27)],,202 nM,,,,461 nM,,,370 nM,,64 nM,13 nM,,2120 nM,,466 nM,9.5 nM,74 nM,
EAVRHFPRPWLHGL-NH2 [vpr(29-42)],278 nM,,11 nM,130 nM,1290 nM,8610 nM,,> 30000 nM,8450 nM,31 nM,,,731 nM,,,,,,IC50 (HLA-DR DRB1*16:02): 367 nM
IRYPLTFGWCFKLVPVDPREVEEA-NH2 [nef(133-156)],1640 nM,13000 nM,,,,249 nM,317 nM,,4780 nM,,398 nM,,,4540 nM,4290 nM,5360 nM,2160 nM,2740 nM,
IVALIIAIVVWTIV-NH2 [vpu(13-26)],,5810 nM,,,,26100 nM,,,> 30000 nM,,14900 nM,19600 nM,> 30000 nM,12700 nM,> 30000 nM,2580 nM,765 nM,4360 nM,
LNKIVRMYSPVSILDI-NH2 [p24(138-153)],25 nM,3 nM,,,,26 nM,,,220 nM,,49 nM,,,79 nM,,16 nM,3.1 nM,,
NYPIVQNLQGQMVHQAISPR-NH2 [p17(131-132)/p24(1-18)],131 nM,952 nM,,,,2870 nM,,,,,428 nM,83 nM,,1130 nM,,344 nM,71 nM,68 nM,IC50 [4]: 2520 nM
VGSLQYLALTALITPKK-NH2 [vif(142-158)],,,74 nM,25 nM,6.4 nM,115 nM,2.4 nM,48 nM,20 nM,262 nM,,,,,,,,,IC50 (HLA-DR DRB4*01:01): 78 nM; IC50 (HLA-DR DRB1*13:02): 7.1 nM; IC50 (HLA-DR DRB1*04:05): 2.3 nM
